In the oligonucleotide strings, read from the 5' end, every base follows the letter of its sugar. An asterisk marks phosphorothioate; unmarked linkages are phosphodiester. Other units and linkages are bracketed, terminal groups are in braces. A string of capitals states the bases alone. e = 2'-O-(2-methoxyethyl) (MOE); [5mC] = 5-methylcytosine; d = 2'-deoxy (DNA)
Columns and labels:
[1] = High fat fed C57BL/6 mice, 6 week timecourse: body, spleen, liver and fat pad weight; type: in vivo, mouse; settings: six weeks, vs saline-treated controls
Method: Male C57BL/6 mice (n=8) receiving a high fat diet (60% kcal fat) were evaluated over the course of 6 weeks for the effects of ISIS 147764 on body, spleen, liver and fat pad weight. Control animals received saline treatment (50 mg/kg). […]
At study termination, animals were sacrificed 48 hours after the final injections and body, spleen, liver and fat pad weights were measured. Values are expressed as percent change in body weight or ogan weight compared to the saline-treated control animals. Negative values indicated a decrease in weight.

[2] = Lean mice, 6 weeks (Example 66): serum lipids and liver enzymes; type: in vivo, mouse; settings: for HDL-cholesterol / LDL-cholesterol / Liver Enzymes ALT / Liver Enzymes AST / Total cholesterol / Triglycerides: serum
Method: The accumulation of lipids in liver tissue was also evaluated in lean mice. Male […] mice (Charles River Laboratories (Wilmington, Mass.) at 6 to 7 weeks of age were maintained on a standard rodent diet and were treated twice weekly with intraperitoneal injections of 25 or 50 mg/kg 147764 (SEQ ID NO: 109) or 147483 (SEQ ID NO: 79) for 6 weeks. Saline treated animals served as controls. Each treatment group was comprised of 4 animals. Animals were sacrificed after the 6 week treatment period, at which point liver tissue and serum were collected.
Total cholesterol, LDL-cholesterol, HDL-cholesterol and triglycerides in serum were measured by routine clinical analysis using an Olympus Clinical Analyzer (Olympus America Inc., Melville, N.Y.). The liver enzymes ALT and […] in serum were also measured using the Olympus Clinical Analyzer.

[3] = ob/ob mice (Example 50): cholesterol, lipid, triglyceride, liver enzyme and glucose levels; type: in vivo, mouse; settings: high fat high cholesterol diet, 50 mg/kg i.p. twice a week, six weeks
Procedure, shortened: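 Ob/ob mice on 60% kcal fat diet with 0.15% cholesterol received 50 mg/kg oligonucleotide i.p. twice weekly for six weeks, with saline and control oligonucleotides.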

[4] = system: mouse apolipoprotein B mRNA; test: Long-term study in lean CD-1 mice (Example 63): apolipoprotein B mRNA in liver; type: in vivo; settings: after one month of treatment
Method: In accordance with the present invention, the toxicity of ISIS 301012 (SEQ ID NO: 247) is investigated in a long-term, 3 month study in mice. Two-month old male and female CD-1 mice (Charles River Laboratories, Wilmington, Mass.) are dosed with 2, 5, 12.5, 25 or 50 mg/kg of ISIS 301012 twice per week for first week, and every 4 days thereafter. The mice are maintained on a standard rodent diet. Saline and control oligonucleotide animals serve as controls and are injected on the same schedule. Each treatment group contains 6 to 10 mice of each sex, and each treatment group is duplicated, one group for a 1 month study termination, the other for a 3 month study termination. After the 1 or 3 month treatment periods, the mice are sacrificed and evaluated for target expression in liver, lipid levels in serum and indicators of toxicity. Liver samples are procured, RNA is isolated and apolipoprotein B mRNA expression is measured by real-time PCR as described in other examples herein. Serum lipids, including total cholesterol, LDL-cholesterol, HDL-cholesterol and triglycerides, are evaluated by routine clinical analysis using an Olympus Clinical Analyzer (Olympus America Inc., Melville, N.Y.). Ratios of LDL-cholesterol to HDL-cholesterol and total cholesterol to HDL-cholesterol are also calculated. […]

[5] = system: human apolipoprotein B protein; test: Transgenic mice dosing study (Example 52): serum human apolipoprotein B protein by ELISA; type: in vivo, human transgene in mouse
Method: A long-term study of inhibition of human apolipoprotein B by ISIS 301012 in C57BL/6NTac-TgN(APOB100) mice (Taconic, Germantown, N.Y.) was conducted for a 3 month period. Mice were dosed intraperitoneally twice a week with 10 or 25 mg/kg ISIS 301012 (SEQ ID No: 247) for 12 weeks. Saline-injected animals served as controls. Each treatment group comprised 4 animals.
After 2, 4, 6, 8 and 12 weeks of treatment, serum samples were collected for the purpose of measuring human apolipoprotein B protein. Serum protein was quantitated using an ELISA kit specific for human apolipoprotein B (ALerCHEK Inc., Portland, Me.). The data are shown in Table 30 and each result represents the average of 4 animals. Data are normalized to saline-treated control animals.

[6] = Transgenic mice dosing study (Example 52): serum ALT and AST levels; type: in vivo, mouse; settings: 10 or 25 mg/kg

GTCCCTGAAGATGTCAATGC (2'-MOE gapmer, further chemistry not given here) [ISIS 147764]
Percent Change Fat (fat pad weight) ([1]; 5 mg/kg i.p.): 10%
Percent Change Liver weight ([1]; 5 mg/kg i.p.): 18%
Percent Change Spleen weight ([1]; 5 mg/kg i.p.): 10%
Percent Change Total Body Wt. ([1]; 5 mg/kg i.p.): 5%
Percent Change Fat (fat pad weight) ([1]; 25 mg/kg i.p.): 6%
Percent Change Liver weight ([1]; 25 mg/kg i.p.): 70%
Percent Change Spleen weight ([1]; 25 mg/kg i.p.): 10%
Percent Change Total Body Wt. ([1]; 25 mg/kg i.p.): 5%
Percent Change Fat (fat pad weight) ([1]; 50 mg/kg i.p.): −47%
Percent Change Liver weight ([1]; 50 mg/kg i.p.): 80%
Percent Change Spleen weight ([1]; 50 mg/kg i.p.): 46%
Percent Change Total Body Wt. ([1]; 50 mg/kg i.p.): −4%
serum lipids relative to saline-treated control animals ([2]; 25 or 50 mg/kg i.p. twice weekly): lowers serum lipids
HDL-cholesterol ([2]; 25 mg/kg i.p. twice weekly): 79 mg/dL
LDL-cholesterol ([2]; 25 mg/kg i.p. twice weekly): 29 mg/dL
Liver Enzymes ALT ([2]; 25 mg/kg i.p. twice weekly): 47 IU/L
Liver Enzymes AST ([2]; 25 mg/kg i.p. twice weekly): 81 IU/L
Total cholesterol ([2]; 25 mg/kg i.p. twice weekly): 114 mg/dL
Triglycerides ([2]; 25 mg/kg i.p. twice weekly): 80 mg/dL
HDL-cholesterol ([2]; 50 mg/kg i.p. twice weekly): 38 mg/dL
LDL-cholesterol ([2]; 50 mg/kg i.p. twice weekly): 18 mg/dL
Liver Enzymes ALT ([2]; 50 mg/kg i.p. twice weekly): 48 IU/L
Liver Enzymes AST ([2]; 50 mg/kg i.p. twice weekly): 101 IU/L
Total cholesterol ([2]; 50 mg/kg i.p. twice weekly): 57 mg/dL
Triglycerides ([2]; 50 mg/kg i.p. twice weekly): 30 mg/dL

147764 (eG*eT*e[5mC]*e[5mC]*e[5mC]*dT*dG*dA*dA*dG*dA*dT*dG*dT*d[5mC]*eA*eA*eT*eG*e[5mC]) [compound 147764]
Glucose [3]: 209.2 mg/dL
Lipoproteins CHOL [3]: 286.3 mg/dL
Lipoproteins TRIG [3]: 101.2 mg/dL
Liver Enzymes ALT [3]: 835.0 IU/L
Liver Enzymes AST [3]: 406.5 IU/L
glucose, cholesterol, and triglyceride levels [3]: able to lower

ISIS 301012: SEQ ID NO: 247, antisense oligonucleotide targeted to human apolipoprotein B (antisense GCCTCAGTCTGCTTCGCACC; chemistry not given here)
reduction of mouse apolipoprotein B mRNA levels in liver [4]: 53%
% Reduction in human apolipoprotein B protein in serum ([5]; 10 mg/kg i.p. twice a week, 2 weeks): 76%
% Reduction in human apolipoprotein B protein in serum ([5]; 10 mg/kg i.p. twice a week, 4 weeks): 78%
% Reduction in human apolipoprotein B protein in serum ([5]; 10 mg/kg i.p. twice a week, 6 weeks): 73%
% Reduction in human apolipoprotein B protein in serum ([5]; 10 mg/kg i.p. twice a week, 8 weeks): 42%
% Reduction in human apolipoprotein B protein in serum ([5]; 10 mg/kg i.p. twice a week, 12 weeks): 85%
% Reduction in human apolipoprotein B protein in serum ([5]; 25 mg/kg i.p. twice a week, 2 weeks): 80%
% Reduction in human apolipoprotein B protein in serum ([5]; 25 mg/kg i.p. twice a week, 4 weeks): 87%
% Reduction in human apolipoprotein B protein in serum ([5]; 25 mg/kg i.p. twice a week, 6 weeks): 86%
% Reduction in human apolipoprotein B protein in serum ([5]; 25 mg/kg i.p. twice a week, 8 weeks): 47%
% Reduction in human apolipoprotein B protein in serum ([5]; 25 mg/kg i.p. twice a week, 12 weeks): 79%
lowering of human apolipoprotein B protein in serum (ELISA) ([5]; 10 or 25 mg/kg i.p. twice a week, 2, 4, 6 or 12 weeks): approximately 80%
AST and ALT levels in serum [6]: increased, yet did not exceed normal levels
